Test results reported in publication PMC7125202, “Targeting of radioactive platinum-bisphosphonate anticancer drugs to bone of high metabolic activity” (Scientific Reports, 2020).

Legend:
[1] = system: genomic DNA; test: Pt-DNA adducts quantification using High Resolution ICP-MS; assay type: in vivo, C57Bl/6N mice; settings: 24 h after i.v. injection
Description: The remaining half of the tissues from all mice were dissected and weighed for DNA extraction. DNA was isolated using DNeasy Blood & Tissue Kit (Qiagen, USA) for soft tissue and ChargeSwitch® gDNA Plant Kit (Thermofisher, USA) for bone samples. The DNA was digested with DNase I Solution (Thermofisher, USA) and filtered using 0.2 µm acrodisc GHP before analysis for Pt content using high resolution-ICP-MS (Element2, Thermo Finnigan). The detection limit for determining the platinum concentration was 2 ng/l. The standard solutions were prepared from 1000 mg·1^−1 platinum ICP standard Certipur (1.70341.0100, Merck) ranging from 5 ppt to 10 ppb. The selected isotopes for platinum were ^194Pt and ^195Pt. Furthermore, thallium (Tl) was added as an internal standard and determined at a molecular mass of 205 Da, which was prepared using a 1000 mg·1^−1 thallium standard (CGTL-1, Inorganic Ventures) to correct for matrix effects and long-term fluctuations of the analytical signal. The Pt-DNA adduct concentration is represented as percentage of Pt involved in adduct formation to the total amount of Pt accumulated in the specific tissue.

[2] = In vivo biodistribution of cold Pt-species, Pt quantified by ICP-MS; parameters: species or system C57Bl/6N mice; settings: 24 h after i.v. injection
Procedure: The Pt-BP and Pt(NO3)2(en) complexes were administered intravenously in the tail vein of C57BL/6N mice (n = 5 per each platinum complex). Sterile saline solution (0.9% NaCl) was used to dissolve platinum complexes. The concentration of injected Pt-BP or Pt(NO3)2(en) solutions was 2.5 mM platinum, calculated based on the maximum tolerated dose for cisplatin of 6 mg per kg body weight of the mice[37]. The mice were euthanized with CO2 24 h after injection, after which blood (approximately 600 mg per mouse), liver, spleen, kidneys, heart, lungs, and bones (femur, humerus, tibia, and spine) were harvested. Approximately half of the tissues were prepared for inductively coupled plasma-mass spectrometry (ICP-MS) analysis by digestion in 65% (v/v) nitric acid at 75 °C for approximately three days until the tissues were digested completely. Each tissue was cut into three samples and the samples were weighed prior to digestion in nitric acid. The digested solutions were diluted with up to 6 ml of Milli-Q water to obtain 2% (v/v) nitric acid in order to measure platinum concentrations by ICP-MS (X series I, Thermo Electron Corporation). The detection limit for determining platinum concentration with ICP-MS was 1 ppb. The standard solutions were prepared from 1000 mg·1^−1 platinum ICP standard Certipur (1.70341.0100, Merck) ranging from 1 ppb to 2500 ppb. The measured isotopes for platinum were ^194Pt, ^195Pt, ^196Pt, and ^198Pt. Furthermore, scandium (^45Sc) was added as an internal standard, which was prepared with 1000 mg·1^−1 scandium standard Certipur (1.19513.0100, Merck) to correct for matrix effects and long-term fluctuations of the measurement signal. The platinum concentrations in the various tissues were calculated relative to 1 mg of the specific tissue and represented as ng Pt/mgtissue. Three replicates of Pt-BP and Pt(NO3)2(en) solutions with volumes and platinum concentrations identical to the solutions injected to the mice (200 µl and 2.5 mM platinum, respectively) were also analyzed for their platinum content using ICP-MS as control. The percentage of injected dose (%ID) of Pt-BP and Pt(NO3)2(en) in each mouse tissue 24 h after injection was calculated by dividing the total amount of platinum per tissue through the total amount of platinum detected in the control solutions[52].

## NCCN.NCCN.O.O.O.O=S(=O)([O-])O.[NH3+]CC1(O)P2(=O)[O][Pt][O]P1(=O)[O][Pt][O]2 (stereo not drawn) [Pt-BP, dinuclear bis<ethylenediamineplatinum(II) > -2-amino-1-hydroxyethane-1,1-diyl-bisphosphonate complex]
[1]
  Pt-DNA adduct formation relative to total Pt uptake, all tissues except kidney and spleen: < 0.5%
  Pt-DNA adduct formation relative to total Pt uptake, kidney: 2.8%
  Pt-DNA adduct formation relative to total Pt uptake, spleen: 1.4%
[2]
  higher affinity for bone compared to Pt(NO3)2(en): 4.5 fold
[2]; 2.5 mM Pt
  Pt uptake in hard tissue: 12.18 ± 0.56 %ID/g
  Pt uptake in kidney: 5.70 ± 0.15 %ID/g
  Pt uptake in liver: 2.34 ± 0.17 %ID/g
  Pt uptake in spleen: 1.22 ± 0.12 %ID/g
[2]; 2.5 mM Pt, normalized for tissue weight
  Pt accumulation in hard tissue (bone): ~ 3 ng Pt/mg tissue
